US10034886B2, “GLP-1 receptor modulators” (Celgene International II SÀRL, priority 2014, dated 2018)
Like-named read-outs stand apart in the source and are kept apart here.

Target: T1, GLP-1R (Homo sapiens, UniProt P43220)
T1 construct: host or cells: GLP-1R CRE-bla CHO-K1 cells
Assay: EC20 GLP-1(9-36) PAM cAMP assay: dose response of compound in the presence of fixed concentration of GLP-1(9-36)
Format: cell-based
Conditions: GLP-1R CRE-bla CHO-K1 cells, read-out: EC20 GLP-1(9-36) PAM EC50
In short: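 Positive allosteric modulation read as cAMP accumulation: compound titrations (12 points) combined with an EC20 level of GLP-1(9-36) on CHO-K1 GLP-1R CRE-bla cells, IBMX present, 30 min, 37 °C, pH 7.4 buffer. Luminescence converted to cAMP via standards; non-linear fit gave EC50 and Emax.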

[1] = compound dose response with fixed concentration of GLP-1(9-36)
[2] = dose response of compound in presence of fixed concentration of GLP-1(9-36)

T1 sequence (P43220 24-463): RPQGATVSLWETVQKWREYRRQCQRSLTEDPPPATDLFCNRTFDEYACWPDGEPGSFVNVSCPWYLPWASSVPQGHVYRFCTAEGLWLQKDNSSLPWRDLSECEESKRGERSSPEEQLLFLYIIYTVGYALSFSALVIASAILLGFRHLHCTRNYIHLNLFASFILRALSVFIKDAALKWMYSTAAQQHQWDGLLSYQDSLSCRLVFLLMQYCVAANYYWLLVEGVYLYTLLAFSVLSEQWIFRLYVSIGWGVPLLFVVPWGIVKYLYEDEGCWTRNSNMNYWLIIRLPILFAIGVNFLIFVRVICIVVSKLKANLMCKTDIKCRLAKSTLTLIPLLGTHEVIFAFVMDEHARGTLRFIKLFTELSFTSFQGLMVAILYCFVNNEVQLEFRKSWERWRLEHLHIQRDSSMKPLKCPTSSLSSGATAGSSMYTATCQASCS
T1 sequence (P01275 100-127 partner limits assumed): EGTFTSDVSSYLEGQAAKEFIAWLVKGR

Compound	EC50 [1] [nM]	EC50 [2] [nM]
CCCc1cnc(C2CCN(c3cnc(-c4ccc(C[C@H](NC(=O)c5ccc(C(C)(C)C)s5)C(=O)N5CC(C(=O)O)C5)cc4)nc3)CC2)nc1 [Compound 1499]	2500 to 5000	–
CCCCCCCOc1ccc(-c2cnc(-c3ccc(C[C@H](NC(=O)c4ncc(C(C)C)s4)C(=O)O)cc3)nc2)cc1 [Compound 148]	–	800 to 2500
CCCCCCCOc1ccc(-c2cnc(-c3ccc(C[C@H](NC(=O)c4ccc(C(C)(C)C)cc4)C(=O)NC(CC)C(=O)O)cc3)nc2)cc1 (some centres unmarked) [Compound 548]	–	< 800
CCC[C@H]1CC[C@H](C2CCN(c3cnc(-c4ccc(C[C@H](NC(=O)c5ccc(C(C)(C)C)s5)C(=O)N5CCC(C(=O)O)CC5)cc4)nc3)CC2)CC1 [Compound 1457]	< 800	–
CC(C)(C)c1ccc(C(=O)N[C@@H](Cc2ccc(-c3ncc(-c4ccc(-c5cc(Cl)cc(Cl)c5)cc4F)cn3)cc2)C(=O)N2CC(C(=O)O)C2)s1 [Compound 1198]	–	< 800
CCCCCCCOc1ccc(-c2cnc(-c3ccc(C[C@H](NC(=O)c4ccc(C(C)(C)C)cc4)C(=O)NC(C)CC(=O)O)cc3)nc2)cc1 (some centres unmarked) [Compound 537]	–	5000 to 10000
CCCCCCCOc1ccc(-c2cnc(-c3ccc(C[C@H](NC(=O)c4ccc(C(C)(C)C)cc4)C(=O)NC(Cc4ccccc4)C(=O)O)cc3)nc2)cc1 (some centres unmarked) [Compound 561]	–	< 800
C[C@@H](NC(=O)[C@H](Cc1ccc(-c2ncc(-c3ccc(-c4ccccc4)c(F)c3)cn2)cc1)NC(=O)c1ccc(C(C)(C)C)s1)C(=O)O [Compound 1289]	< 800	–
CCCCCCCOc1ccc2nc(-c3ccc(C[C@H](NC(=O)c4ccc(C(C)(C)C)cc4)C(=O)N4CC[C@H](C(=O)O)C4)cc3)ncc2c1 [Compound 810]	–	5000 to 10000
Cc1ccc(-c2ccc(-c3cnc(-c4ccc(C[C@H](NC(=O)c5ccc(C(C)(C)C)s5)C(=O)N5CC(C(=O)O)C5)cc4)nc3)c(F)c2)c(F)c1 [Compound 1204]	< 800	–
CCCCCCCOc1ccc(-c2cnc(-c3ccc(C[C@H](NC(=O)c4ccc(C(C)(C)C)cc4)C(=O)NCC(=O)NCC(=O)O)cc3)nc2)cc1 [Compound 444]	–	< 800
CC[C@H]1CC[C@H](c2ccc(N3CCN(c4ccc(C[C@H](NC(=O)c5ccc(C(C)(C)C)s5)C(=O)N5CC(C(=O)O)C5)cc4)CC3)cc2)CC1 [Compound 1060]	–	2500 to 5000
CCCCCCCOc1ccc(-c2cnc(-c3ccc(C[C@H](NC(=O)c4ccc(C(C)(C)C)s4)C(=O)N4C(C(=O)O)CCC4C(=O)O)cc3)nc2)cc1 (some centres unmarked) [Compound 614]	–	800 to 2500
Cc1cc(F)ccc1-c1ccc(-c2cnc(-c3ccc(C[C@H](NC(=O)c4ccc(C(C)(C)C)s4)C(=O)N4CC(C(=O)O)C4)cc3)nc2)c(F)c1 [Compound 1206]	800 to 2500	–
CCCc1ccc(-c2ccc(-c3cnc(-c4ccc(C[C@H](NC(=O)c5ccc(C6CC6)cc5)C(=O)N5CC(C(=O)O)C5)cc4)nc3)c(F)c2)cc1 [Compound 1410]	< 800	–
CCCc1ccc(N2CCN(c3cnc(-c4ccc(C[C@H](NC(=O)c5ccc(C(C)(C)C)s5)C(=O)N5CC(C(=O)O)C5)cc4)nc3)CC2)cc1 [Compound 1511]	< 800	–
CCCCCCCOc1ccc(-c2cnc(-c3ccc(C[C@H](NC(=O)c4ccc(C(C)(C)CC)cc4)C(=O)N4CC[C@H](C(=O)O)C4)cc3)nc2)cc1 [Compound 859]	–	2500 to 5000
CC(C)(C)c1ccc(C(=O)N[C@@H](Cc2ccc(-c3ncc(-c4ccc(-c5cccc(OC(F)(F)F)c5)cc4F)cn3)cc2)C(=O)N2CC(C(=O)O)C2)s1 [Compound 1215]	< 800	–
CC(C)(C)OC(=O)N1CCC(C2CCN(c3cnc(-c4ccc(C[C@H](NC(=O)c5ccc(C(C)(C)C)s5)C(=O)N5CC(C(=O)O)C5)cc4)nc3)CC2)CC1 [Compound 1415]	5000 to 10000	–
CCCCCCCOc1ccc(-c2cnc(-c3ccc(C[C@H](NC(=O)c4ccc(C(C)(C)C)s4)C(=O)N4CC(C(=O)NS(=O)(=O)CC(=O)O)C4)cc3)nc2)cc1 [Compound 649]	–	800 to 2500
CC(C)(C)c1ccc(C(=O)N[C@@H](Cc2ccc(-c3ncc(-c4ccc(C5CCOCC5)cc4)cn3)cc2)C(=O)N2CC(C(=O)O)C2)s1 [Compound 1180]	–	2500 to 5000
CCCCc1ccc(CC2CN(c3cnc(-c4ccc(CC(NC(=O)c5ccc(C(C)(C)C)s5)C(=O)N5CC(C(=O)O)C5)cc4)nc3)C2)cc1 (centres unmarked) [Compound 1510]	2500 to 5000	–
CCCCCCCOc1ccc(-c2cnc(-c3ccc(C[C@H](NC(=O)c4cc5cc(OC)ccc5[nH]4)C(=O)N[C@H](C)C(=O)O)cc3)nc2)cc1 [Compound 990]	–	2500 to 5000
CCCCCCCOc1ccc(-c2cnc(-c3ccc(CC(NC(=O)c4ccc(C(C)(C)C)s4)C(=O)N[C@H](C(=O)O)C(C)C)cc3)nc2)cc1 (some centres unmarked) [Compound 407]	–	< 800
CCC[C@H]1CC[C@H](C2CCN(c3cnc(-c4ccc(C[C@H](NC(=O)c5ccc(C(C)(C)C)s5)C(=O)N5CCC[C@H]5C(=O)O)cc4)nc3)CC2)CC1 [Compound 1419]	< 800	–

Compound	EC50 [1] [nM]	EC50 [2] [nM]
CCCCCCCOc1ccc(-c2cnc(-c3ccc(C[C@H](NC(=O)c4ccc(C(C)(C)C)cc4OC)C(=O)N4CC[C@H](C(=O)O)C4)cc3)nc2)cc1 [Compound 852]	–	2500 to 5000
CCCCN(Cc1ccc(OC)cc1)S(=O)(=O)c1ccc(-c2cnc(-c3ccc(C[C@H](NC(=O)c4ccc(C(C)(C)C)s4)C(=O)N[C@H](C)C(=O)O)cc3)nc2)cc1 [Compound 1037]	–	800 to 2500
CCC[C@H]1CC[C@H](C2CCN(c3cnc(-c4ccc(C[C@H](NC(=O)c5ccc(C(C)(C)C)s5)C(=O)N[C@@H](CN)C(=O)O)cc4)nc3)CC2)CC1 [Compound 1472]	< 800	–
CCCCCCCOc1ccc(-c2cnc(-c3ccc(C[C@H](NC(=O)c4ccc(C(C)(C)C)s4)C(=O)N[C@H](C(=O)O)[C@@H](N)c4ccccc4)cc3)nc2)cc1 [Compound 883]	–	5000 to 10000
CCCCCCCOc1ccc(-c2cnc(-c3ccc(C[C@H](NC(=O)c4ccc(C(C)(C)C)c(OC)c4)C(=O)N4CC(C(=O)O)C4)cc3)nc2)cc1 [Compound 1120]	–	2500 to 5000
CCCCCCCOc1ccc(-c2cnc(-c3ccc(C[C@H](NC(=O)c4ccc(C(C)(C)C)s4)C(=O)NC(C(=O)O)C(O)c4cnccn4)cc3)nc2)cc1 (some centres unmarked) [Compound 917]	–	800 to 2500
CCCCCCCOc1ccc(-c2cnc(-c3ccc(C[C@H](NC(=O)c4cnn(C(C)(C)C)c4C)C(=O)N4CCC[C@H]4C(=O)O)cc3)nc2)cc1 [Compound 1079]	–	2500 to 5000
CCCCCCCOc1ccc(-c2cnc(-c3ccc(C[C@H](NC(=O)c4ccc(C(C)(C)C)s4)C(=O)NC(C(=O)O)C(OC)c4ccccc4)cc3)nc2)cc1 (some centres unmarked) [Compound 890]	–	800 to 2500
CCCCCCCOc1ccc(-c2cnc(-c3ccc(C[C@H](NC(=O)c4ccc(C(C)(C)C)s4)C(=O)N4CCC(F)(C(=O)O)C4)cc3)nc2)cc1 (some centres unmarked) [Compound 652]	–	< 800
CC[C@H]1CC[C@H](c2ccc(-c3cnc(-c4ccc(C[C@H](NC(=O)c5ccc(C(C)(C)C)cc5)C(=O)N5CC(C(=O)O)C5)cc4)nc3)cc2)CC1 [Compound 1170]	–	< 800
CC(C)(C)c1ccc(COc2ccc(-c3cnc(-c4ccc(C[C@H](NC(=O)c5ccc(C(C)(C)C)cc5)C(=O)NCCC(=O)O)cc4)nc3)cc2)cc1 [Compound 713]	–	800 to 2500
CC(C)CCCOc1ccc(-c2cnc(-c3ccc(C[C@H](NC(=O)c4ccc(C(C)(C)C)cc4)C(=O)NCCC(=O)O)cc3)nc2)cc1 [Compound 458]	–	800 to 2500
CCOc1cc(OC(F)(F)F)cc(-c2cnc(-c3ccc(C[C@H](NC(=O)c4ccc(C(C)(C)C)s4)C(=O)N[C@H](C)C(=O)O)cc3)nc2)c1F [Compound 1045]	–	2500 to 5000
CC(C)Oc1ccc(-c2cnc(-c3ccc(C[C@H](NC(=O)c4ccc(C(C)(C)C)cc4)C(=O)NCCC(=O)O)cc3)nc2)cc1 [Compound 695]	–	2500 to 5000
CC[C@H]1CC[C@H](c2ccc(-c3cnc(-c4ccc(C[C@H](NC(=O)c5ccc(C(C)(C)C)s5)C(=O)NCCC(=O)O)cc4)nc3)cc2)CC1 [Compound 1324]	< 800	–
CC[C@H]1CC[C@H](c2ccc(-c3cnc(-c4ccc(C[C@H](NC(=O)c5cnc(C6CC6)nc5)C(=O)O)cc4)nc3)cc2)CC1 [Compound 1391]	< 800	–
CC1(C)CCC(c2ccc(-c3cnc(-c4ccc(C[C@H](NC(=O)c5ccc(C(C)(C)C)s5)C(=O)N5CC(C(=O)O)C5)cc4)nc3)cc2)CC1 [Compound 1088]	–	< 800
CCC[C@H]1CC[C@H](C2CCN(c3cnc(-c4ccc(C[C@H](NC(=O)c5ccc(C(C)(C)C)nc5)C(=O)N5CC(C(=O)O)C5)cc4)nc3)CC2)CC1 [Compound 1531]	< 800	–
CCC[C@H]1CC[C@H](C2CCN(c3cnc(-c4ccc(C[C@H](NC(=O)c5ccc(S(=O)(=O)C(C)C)cc5)C(=O)N5CC(C(=O)O)C5)cc4)nc3)CC2)CC1 [Compound 1523]	800 to 2500	–
CCCCCCCOc1ccc(-c2cnc(-c3ccc(C[C@H](NC(=O)c4ccc(C(C)(C)C)s4)C(=O)N[C@@H](CC)C(=O)O)cc3)nc2)cc1 [Compound 401]	–	< 800
CCCCCCCOc1ccc(-c2cnc(-c3ccc(C[C@H](NC(=O)c4ccc(C(C)(C)C)s4)C(=O)NC(C(=O)O)C(O)c4ccccc4)cc3)nc2)cc1 (some centres unmarked) [Compound 634]	–	< 800
CC(C)(C)c1ccc(C(=O)N[C@@H](Cc2ccc(-c3ncc(-c4nc(-c5cccc(Cl)c5)no4)cn3)cc2)C(=O)NCCC(=O)O)cc1 [Compound 758]	–	2500 to 5000
CCc1ccc(/C=C/c2cnc(-c3ccc(C[C@H](NC(=O)c4ccc(C(C)(C)C)s4)C(=O)N4CC(C(=O)O)C4)cc3)nc2)cc1 [Compound 1092]	–	800 to 2500
CCCCCCCOc1ccc(-c2cnc(-c3ccc(C[C@H](NC(=O)c4ccc(C(C)(C)C)cc4)C(=O)NC(CC(=O)O)c4ccccc4)cc3)nc2)cc1 (some centres unmarked) [Compound 539]	–	5000 to 10000
CC(C)(C)c1ccc(C(=O)N[C@@H](Cc2ccc(-c3ncc(N4CCC(c5ccc(C(F)(F)F)cc5)CC4)cn3)cc2)C(=O)N2CC(C(=O)O)C2)s1 [Compound 1481]	< 800	–
